# In article PMC10654507, “A cleavable chimeric peptide with targeting and killing domains enhances LPS neutralization and antibacterial properties against multi-drug resistant E. coli” (Communications Biology, 2023):
# Like-named read-outs stand apart in the source and are kept apart here. Residues, ends and D or L forms follow the SMILES beside them.
# Columns and labels:
# LPS [1] = assay: Serum cytokines (TNF-α, IL-6, IL-1β, IL-10; ELISA) in LPS-challenged mice; assay type: in vivo, mouse; details: LPS-challenged mice pre-treated with 7 μmol/kg, range over sampling times (12 h, 24 h)
# Procedure: (§1) After E. coli or LPS challenge, the mice were sacrificed at 12 h and 24 h, respectively, and the sera were collected to detect inflammatory cytokines (such as tumor necrosis factor-α (TNF-α), interleukin-6 (IL-6), interleukin-1β (IL-1β), and interleukin-10 (IL-10)) using the enzyme linked immunosorbent assay (ELISA) kits. To evaluate the specific activity of intestinal alkaline phosphatase (IAP), a 2 cm segment of duodenum was rapidly intercepted from the mice and homogenized; the IAP levels in the supernatant were detected by ELISA. In addition, the lungs were collected from the mice infected by E. coli after 12 and 24 h, respectively and were homogenized in sterile PBS for the bacterial counts assay.
# MDR E. coli CVCC195 [2] = assay: Intestinal alkaline phosphatase (IAP) activity in duodenum, E. coli-challenged mice; assay type: in vivo, mouse; details: for IAP levels in mice: Fig. 5g source data, peptide + E. coli, mean
# Procedure: as §1
# MDR E. coli CVCC195 [3] = assay: Lung injury score (H&E histology), E. coli-challenged mice; assay type: in vivo, mouse; details: for lung injury score: 7 μmol/kg i.p. pre-treatment, three mice/group; for Pathological analysis of lung (lung injury score): Fig. 6b source data, peptide + E. coli, mean
# Procedure: Lung injury was analyzed histologically at 12 h or 24 h. a Histopathological images of lung sections after staining with hematoxylin and eosin (H&E). Images are presented at a magnification of 100×. b Pathological analysis of lung. Lung injury involves in inflammation (such as peribronchial, perivascular, intrabronchial, and pulmonary interstitial one), bronchial exudate, and alveolar septal thickening, respectively. The specific degree of lung injury of each mouse is assessed by Score 0 (asymptomatic), Score 1 (mild), Score 2 (moderate), and Score 3 (severe), respectively. c The number of counted infiltrated inflammatory cells within processed lung sections from a. Data represent the mean ± SD of three independent experiments. Different lower-case letters indicate a significant difference between the two groups (p < 0.05).
# (§2) Lung tissues were taken at 12 h and 24 h, respectively, washed with PBS, and fixed in 4% paraformaldehyde overnight. After dehydration in different concentrations of ethanol (including 75%, 85%, 90%, and 95%, respectively), the tissues were embedded in paraffin, sliced, and stained with hematoxylin. Observation was performed under a light microscope. The mice only injected with E. coli, LPS or PBS was regard as the negative or blank control.
# LPS [4] = assay type: in vivo, mouse; parameters: key: 1 represents a mouse death; 0 represents no death; details: Supplementary Fig. 3b source data, LPS challenge
# Procedure: (§3) Supplementary Figure 3. Therapeutic eﬀicacy of cleavable chimeric peptide R7 in the mice
# (§4) challenged with MDR E. coli or LPS After the intraperitoneal injection with MDR E. coli (a) or LPS
# (§5) (b) at a concentration of LD100, the mice were treated with 7 μmol/kg R7 at 0.5 h and 8 h, respectively.
# (§6) The mouse survival was recorded for 7 d. The mice injected with MDR E. coli/LPS or saline were used
# S. aureus CVCC546 = assay type: cell-based, Staphylococcus aureus; details: repeated three times
# Procedure: The minimum inhibitory concentration (MIC) and minimum bactericidal concentration (MBC) of peptides were determined by the microtiter broth dilution method according to Clinical and Laboratory Standards Institute (CLSI) guidelines. […] PBS was used as the negative control. […] The MBC value was calculated as the lowest concentration of peptides resulting in a 99.9% reduction of the original inoculum. All experiments were repeated three times.
# LPS [5] = assay: Mouse survival, preventive treatment before lethal LPS challenge; assay type: in vivo; parameters: key to survival of mice, single-animal event: 1 represents a mouse death; 0 represents no death; details: for survival of mice, single-animal event: Fig. 7a source data, LPS challenge
# Procedure: A sepsis mouse model established in our laboratory was used to evaluate the prevention effect of peptides. […] The survival rate of mice was recorded for 7 days. The mice injected with saline were used as negative control.
# E. coli 0111: B4 LPS = assay: BC (BODIPY-TR-cadaverine) displacement assay, binding to LPS; parameters: species or system Escherichia coli; unit not given here; details: Fig. 4a source data, mean
# Procedure: The binding of peptides to LPS was determined according to the method described previously[34],[59]. In brief, E. coli 0111: B4 LPS (40 μg/mL) and BODIPY-TR-cadaverine (BC) (10 μM) were mixed in 50 mM Tris buffer (pH = 7.4) in equal proportions and added to a 96-well black plate (180 μL/well) in the dark. Different concentrations of chimeric peptide R7 and its parental (20 μL) were added into each well and detected by a fluorescence spectrophotometry at room temperature (excitation wavelength 580 nm, emission wavelength 620 nm). The change in relative fluorescence was recorded and the BC displacement rate was calculated. Polymycin B (PMB) was used as the positive control.
# MDR E. coli = assay type: in vivo, mouse; parameters: key to therapeutic efficacy, survival, single-animal event: 1 represents a mouse death; 0 represents no death; details: Supplementary Fig. 3a source data, MDR E. coli challenge, one cell per mouse
# Procedure: as §3, §4, §5, §6
# MDR E. coli CVCC195 [6] = assay: Infiltrated inflammatory cells in lung sections, E. coli-challenged mice; assay type: in vivo, mouse; details: Fig. 6c source data, peptide + E. coli, mean
# Procedure: Fig. 6 Effects of cleavable chimeric peptide R7 on lung injury in mice. […] Lung injury was analyzed histologically at 12 h or 24 h. a Histopathological images of lung sections after staining with hematoxylin and eosin (H&E). Images are presented at a magnification of 100×. b Pathological analysis of lung. Lung injury involves in inflammation (such as peribronchial, perivascular, intrabronchial, and pulmonary interstitial one), bronchial exudate, and alveolar septal thickening, respectively. The specific degree of lung injury of each mouse is assessed by Score 0 (asymptomatic), Score 1 (mild), Score 2 (moderate), and Score 3 (severe), respectively. c The number of counted infiltrated inflammatory cells within processed lung sections from a. Data represent the mean ± SD of three independent experiments. Different lower-case letters indicate a significant difference between the two groups (p < 0.05).
# as §2
# [7] = event at day 2, one cell per mouse
# [8] = event at day 7, one cell per entry
smiles,measurement,setting,value
CSCC[C@H](NC(=O)[C@H](CCCNC(=N)N)NC(=O)[C@H](Cc1c[nH]c2ccccc12)NC(=O)[C@H](C)NC(=O)[C@H](Cc1c[nH]c2ccccc12)NC(=O)[C@H](CCCNC(=N)N)NC(=O)[C@H](Cc1c[nH]c2ccccc12)NC(=O)[C@H](C)NC(=O)[C@H](CCCCN)NC(=O)[C@@H](N)Cc1ccccc1)C(=O)N[C@@H](CCCCN)C(=O)N[C@@H](CCCCN)C(=O)N[C@@H](CC(C)C)C(=O)N[C@@H](C)C(=O)N[C@@H](C)C(=O)N1CCC[C@H]1C(=O)N[C@@H](CO)C(=O)O [L7] (H-FKAWRWAWRMKKLAAPS-OH),serum IL-1β concentration,LPS [1],24.6 ~ 26.1 pg/mL
same,serum IL-6 concentration,LPS [1],113.2 ~ 120.2 pg/mL
same,serum IL-10 concentration,LPS [1],11.5 ~ 12.0 pg/mL
same,serum TNF-α concentration,LPS [1],56.4 ~ 68.0 pg/mL
same,IAP levels in mice,MDR E. coli CVCC195 [2]; 12 h,646.785
same,IAP levels in mice,MDR E. coli CVCC195 [2]; 24 h,420.095
same,IAP activity,"MDR E. coli CVCC195 [2]; duodenum, 12 h after E. coli infection, mice pre-treated with 7 μmol/kg peptide, ELISA",646.8 U/g
same,lung injury score,MDR E. coli CVCC195 [3]; 12 h after E. coli infection,7.7 points
same,lung injury score,MDR E. coli CVCC195 [3]; 24 h after E. coli infection,5.7 points
same,Pathological analysis of lung (lung injury score),MDR E. coli CVCC195 [3]; 12 h,6.667
same,Pathological analysis of lung (lung injury score),MDR E. coli CVCC195 [3]; 24 h,7
same,"therapeutic efficacy, survival, single-animal event",LPS [4]; [7],1
same,"therapeutic efficacy, survival, single-animal event","LPS [4]; event at day 3, one cell per mouse",1
same,"therapeutic efficacy, survival, single-animal event",LPS [4]; [8],0
same,MBC,S. aureus CVCC546; lowest concentration giving 99.9% reduction of the inoculum,36.2 µM
same,MIC,"S. aureus CVCC546; microtiter broth dilution, 10^5 CFU/mL, 37 °C, 16 ~ 18 h",18.1 µM
same,mouse survival at 7 days,"LPS [5]; 7 μmol/kg i.p. at 0 h, LPS 13.5 mg/kg i.p. at 6 h, five mice/group",40%
same,"survival of mice, single-animal event",LPS [5]; [7],1
same,"survival of mice, single-animal event",LPS [5]; [8],0
same,binding affinity to LPS,E. coli 0111: B4 LPS; peptide concentration 0.05 μM,17.2577
same,binding affinity to LPS,E. coli 0111: B4 LPS; peptide concentration 0.1 μM,18.4019
same,binding affinity to LPS,E. coli 0111: B4 LPS; peptide concentration 0.5 μM,19.7825
same,binding affinity to LPS,E. coli 0111: B4 LPS; peptide concentration 1 μM,22.1031
same,binding affinity to LPS,E. coli 0111: B4 LPS; peptide concentration 5 μM,24.1888
same,binding affinity to LPS,E. coli 0111: B4 LPS; peptide concentration 10 μM,28.4883
same,binding affinity to LPS,E. coli 0111: B4 LPS; peptide concentration 50 μM,44.9086
same,binding affinity to LPS,E. coli 0111: B4 LPS; peptide concentration 100 μM,71.3338
same,"therapeutic efficacy, survival, single-animal event",MDR E. coli; event at day 2,1
same,"therapeutic efficacy, survival, single-animal event",MDR E. coli; event at day 4,1
same,"therapeutic efficacy, survival, single-animal event",MDR E. coli; event at day 6,1
same,number of counted infiltrated inflammatory cells,MDR E. coli CVCC195 [6]; 12 h,32.847
same,number of counted infiltrated inflammatory cells,MDR E. coli CVCC195 [6]; 24 h,26.4133
